{
  "source": "paper PMC8175350",
  "about": "“Drug repurposing screens identify chemical entities for the development of COVID-19 interventions” (Nature Communications, 2021)",
  "key": {"SARS-CoV-2 [1]": {"test_system": "SARS-CoV-2", "test": "microbe, parasite or virus in culture", "assay_type": "cell-based", "conditions": "for %infected: replicate wells n=1-3"}, "[2]": {"test": "Uninfected HeLa-ACE2 24 h live/dead cytotoxicity counter screen", "assay_type": "cell-based, human", "conditions": "human, uninfected HeLa-ACE2 cells"}, "HeLa-ACE2 cells": {"test_system": "HeLa-ACE2 cells", "test": "Uninfected HeLa-ACE2 24 h live/dead cytotoxicity counter screen", "assay_type": "cell-based, human", "conditions": "for cytotox: HeLa-ACE2, replicate wells n=1-3"}, "SARS-CoV-2 [3]": {"test_system": "SARS-CoV-2", "test": "microbe, parasite or virus in culture", "assay_type": "cell-based", "conditions": "for %infected: Calu-3, replicate wells n=1-3; for EC50: read-out: Calu-3 SARS-CoV-2 EC50"}, "SARS-CoV-2 [4]": {"test_system": "SARS-CoV-2", "test": "microbe, parasite or virus in culture", "assay_type": "cell-based", "conditions": "10 µM after 1 h infection; 4:00:00 post infection"}},
  "note": "Values joined by “and” are separate entries in the source; they are usually repeats but may differ in a detail not shown here. Equal entries are not always repeated. Where two headings read alike, the source gives them in different places.",
  "data": [
    {"smiles": "CCC(CC)COC(=O)[C@H](C)N[P@](=O)(OC[C@H]1O[C@@](C#N)(c2ccc3c(N)ncnn23)[C@H](O)[C@@H]1O)Oc1ccccc1", "note": "[Remdesivir]", "values": [
      {"measurement": "increase in EC50 from MOI = 0.09 to MOI = 2.2", "setting": "SARS-CoV-2 [1]; HeLa-ACE2", "value": 2.7, "unit": "fold"},
      {"measurement": "EC50", "setting": "SARS-CoV-2 [1]; HeLa-ACE2, individual values of 9 independent experiments, read-out: EC50 (µM), Fig 1c", "value": "191 nM and 83 nM and 141 nM and 130 nM and 138 nM (2×)"},
      {"measurement": "%infected", "setting": "SARS-CoV-2 [1]; HeLa-ACE2, concentration log[M] -5.61909", "value": "-99.4999% and -95.8005% and -94.7545% and -97.535% and -100.056% and -100.005% and -100.014% and -99.12% and -100%"},
      {"measurement": "%infected", "setting": "SARS-CoV-2 [1]; HeLa-ACE2, concentration log[M] -6.09621", "value": "-99.2124% and -98.9733% and -96.3176% and -99.76% and -100.229% and -100.013%"},
      {"measurement": "%infected", "setting": "SARS-CoV-2 [1]; HeLa-ACE2, concentration log[M] -8.48182", "value": "18.582% and -4.2719% and -2.02% and 15.6179% and -5.577% and 7.137% and 7.4% and 8.398% and -2.488%"},
      {"measurement": "%infected", "setting": "SARS-CoV-2 [1]; HeLa-ACE2, concentration log[M] -8.95894", "value": "3.102% and 6.636% and 1.634% and -11.6076% and 6.069% and -5.672% and -8.653%"},
      {"measurement": "Emax", "setting": "SARS-CoV-2 [1]; Severe acute respiratory syndrome coronavirus 2, HeLa-ACE2, 24 h, curve plateau at infinite concentration, read-out: HeLa-ACE2 CoV-2 Sinf Average", "value": 100, "unit": "%"},
      {"measurement": "EC50", "setting": "SARS-CoV-2 [1]; Severe acute respiratory syndrome coronavirus 2, HeLa-ACE2, HeLa-ACE2, MOI 0.51, read-out: EC50", "value": 0.126, "unit": "µM"},
      {"measurement": "EC50", "setting": "SARS-CoV-2 [1]; Severe acute respiratory syndrome coronavirus 2, HeLa-ACE2, HeLa-ACE2, MOI 1.1, read-out: EC50", "value": 0.145, "unit": "µM"},
      {"measurement": "EC50", "setting": "SARS-CoV-2 [1]; Severe acute respiratory syndrome coronavirus 2, HeLa-ACE2, HeLa-ACE2, MOI 2.2, read-out: EC50", "value": 0.223, "unit": "µM"},
      {"measurement": "EC50", "setting": "SARS-CoV-2 [1]; Severe acute respiratory syndrome coronavirus 2, HeLa-ACE2, reconfirmed hits, read-out: HeLa-ACE2 SARS-CoV-2 EC50", "value": 0.127, "unit": "µM"},
      {"measurement": "EC50", "setting": "SARS-CoV-2 [1]; Severe acute respiratory syndrome coronavirus 2, HeLa-ACE2, value in brackets*: remdesivir control, read-out: HeLa-ACE2 SARS-CoV-2 EC50", "value": 0.123, "unit": "µM"},
      {"measurement": "CC50 at 24 h", "setting": "[2]; geomean, read-out: uninfected HeLa-ACE2 cytotoxicity CC50", "value": "> 9.67", "unit": "µM"},
      {"measurement": "CC50 at 24 h", "setting": "[2]; reconfirmed hits, read-out: HeLa-ACE2 Uninf. cells CC50", "value": 9.97, "unit": "µM"},
      {"measurement": "CC50 at 24 h", "setting": "[2]; value in brackets*: remdesivir control, read-out: HeLa-ACE2 Uninf. cells CC50", "value": 9.67, "unit": "µM"},
      {"measurement": "CC50 at 24 h", "setting": "[2]; read-out: HeLa-ACE2 uninfected cytotoxicity CC50 GeoMean", "value": 9.97, "unit": "µM"},
      {"measurement": "cytotox", "setting": "HeLa-ACE2 cells; concentration log[M] -5", "value": "-48.6076 and -58.6844 and -51.3625 and -48.213 and -50.9294 and -56.7143 and -47.8141 and -43.3369 and -36.9299"},
      {"measurement": "cytotox", "setting": "HeLa-ACE2 cells; concentration log[M] -5.47712", "value": "-19.1561 and -17.8418 and -30.9661 and -14.3691 and -23.5688 and -36.4286 and -15.3846 and -28.169 and -29.0323"},
      {"measurement": "cytotox", "setting": "HeLa-ACE2 cells; concentration log[M] -5.95424", "value": "6.751 and 11.4789 and 9.414 and -2.699 and 2.9 and 4.429 and 8.301 and 5.85 and 4.672"},
      {"measurement": "cytotox", "setting": "HeLa-ACE2 cells; concentration log[M] -6.43136", "value": "-5.57 and 5.718 and -0.9083 and 5.1787 and 2.305 and -8.143 and -9.851 and -10.8342 and 4.561"},
      {"measurement": "cytotox", "setting": "HeLa-ACE2 cells; concentration log[M] -6.90849", "value": "2.8692 and 11.5649 and -1.239 and 5.033 and 15.0929 and 0 and 8.342"},
      {"measurement": "cytotox", "setting": "HeLa-ACE2 cells; concentration log[M] -7.38561", "value": "-3.882 and -2.966 and 0.578 and 12.6185 and 0.223 and 8.571 and 4.759 and -6.934 and 4.338"},
      {"measurement": "cytotox", "setting": "HeLa-ACE2 cells; concentration log[M] -7.86273", "value": "4.3038 and -8.727 and 10.4046 and -9.847 and -4.535 and -6.857 and 3.25 and -6.674"},
      {"measurement": "cytotox", "setting": "HeLa-ACE2 cells; concentration log[M] -8.33985", "value": "0.2532 and 0.129 and -1.817 and 2.115 and -17.6208 and -2.857 and -8.744 and 4.117 and 1.669"},
      {"measurement": "HeLa-ACE2 uninfected cytotoxicity Sinf Average", "setting": "HeLa-ACE2 cells; curve plateau at infinite concentration", "value": -86, "unit": "%"},
      {"measurement": "%infected", "setting": "SARS-CoV-2 [3]; concentration log[M] -5", "value": "-100% and -99.897% and -100.088% and -98.7564% and -99.5799% and -100.046% and -100.098% and -100.338% and -99.9472%"},
      {"measurement": "%infected", "setting": "SARS-CoV-2 [3]; concentration log[M] -5.47712", "value": "-99.1601% and -98.4923% and -99.234% and -99.2295% and -99.4568% and -99.7507% and -99.3361% and -99.5394% and -98.7541%"},
      {"measurement": "%infected", "setting": "SARS-CoV-2 [3]; concentration log[M] -5.95424", "value": "-89.5337% and -93.208% and -92.5628% and -91.8668% and -95.3312% and -93.4282% and -90.0849% and -90.1886% and -82.0673%"},
      {"measurement": "%infected", "setting": "SARS-CoV-2 [3]; concentration log[M] -6.43136", "value": "-39.9603% and -66.0539% and -61.9632% and -57.8703% and -42.505% and -37.1362% and -41.0562% and -18.9015% and -48.5538%"},
      {"measurement": "%infected", "setting": "SARS-CoV-2 [3]; concentration log[M] -6.90849", "value": "15.313% and 14.726% and -3.639% and 30.6752% and -6.396% and 10.9651% and -1.713% and -1.879%"},
      {"measurement": "%infected", "setting": "SARS-CoV-2 [3]; concentration log[M] -7.38561", "value": "1.995% and -3.779% and 16.4097% and -7.2105% and 10.833% and 28.7058% and 9.608% and 17.5254%"},
      {"measurement": "%infected", "setting": "SARS-CoV-2 [3]; concentration log[M] -7.86273", "value": "12.1902% and -3.292% and 25.9949% and 14.3562% and 4.371% and -33.8895% and 13.327% and 8.365% and 21.3189%"},
      {"measurement": "%infected", "setting": "SARS-CoV-2 [3]; concentration log[M] -8.33985", "value": "-5.4528% and 0% and -9.776% and -9.382% and 5.183% and 10.3172% and 15.4186% and 28.7222%"},
      {"measurement": "Emax", "setting": "SARS-CoV-2 [3]; Severe acute respiratory syndrome coronavirus 2, Calu-3, 48 h, curve plateau at infinite concentration, read-out: Calu-3 CoV-2 Sinf Average", "value": 102, "unit": "%"},
      {"measurement": "EC50", "setting": "SARS-CoV-2 [3]; Severe acute respiratory syndrome coronavirus 2, Calu-3, reconfirmed hits", "value": 0.606, "unit": "µM"},
      {"measurement": "EC50", "setting": "SARS-CoV-2 [3]; Severe acute respiratory syndrome coronavirus 2, Calu-3, value in brackets*: remdesivir control", "value": 0.444, "unit": "µM"},
      {"measurement": "SARS-CoV-2 % infected cells", "setting": "SARS-CoV-2 [4]", "value": "0.0558% and 0.1777% and 0.2107%"}
    ]}
  ]
}
